{
  "source": "patent US20120238865A1",
  "about": "“Method for Measuring the Physiological Parameters of Brain Interstitial Fluid and Brain Extracellular Space” (priority 2009, published 2012)",
  "key": {"[1]": {"test": "MRI of contrast agent diffusion after injection into brain ECS of rat caudate nucleus", "assay_type": "in vivo", "experimental": "In this exemplary embodiment, the rat 10 is anesthetized and incised in the scalp along the sagittal suture. The periosteum was separated and the bregma was exposed. 1 μL Gd-DTPA with concentration range of 5 to 25 mM is injected into the brain ECS of the rat caudate nucleus at the rate of 0.1 μL/min.\nThe microsyringe is slowly removed 5 minutes after injecting. In FIG. 4, the rat narcotized is placed in the wrist coil 30 in the prone position and sent into the imaging device 20 with the examination couch 12. A T1 weighted sequence is used for the MRI scanning MR images from the imaging device 20 are processed in the image-processing unit of the controlling device 40.\nFIG. 6 is a curve of SI increment (ASI) vs. time of the contrast agents along X direction of FIG. 5 at the spots respectively 1 mm, 2 mm, and 3 mm away from the injection site. The increment of SI reflected the concentration increment of the contrast agents. In FIG. 6, the peak of ASI appears in the region which is 1 mm away from the injection site about 1 h after injection, and then value of ASI slowly falls down."}, "[2]": {"test": "Linear fitting of MRI signal intensity vs contrast agent concentration in agarose", "assay_type": "physicochemical", "experimental": "According to the curve, when the concentration of the contrast agents is in the range of 0-5 mM, the SI increased with the concentration. The concentration is related to the SI. In the curve, the abscissa is the concentration of the contrast agent which reflects the mobility of the ISF in brain ECS and the ordinate is the SI of MRI. It is known by the persons skilled in art that the SI here may be the directly SI or the result which is calculated indirectly from the SI such as T1. In the exemplary embodiment, the contrast agents are Gd-DPTA. Other non-ferromagnetic, non-neurotoxicity and extracellular contrast agents, such as T1 positive MRI contrast agent, also can be used here.\nAccording to the curve shown in FIG. 2, the liner equation of the curve is obtained as below\nIn the four experiments, injecting contrast agents with different concentration range are into agarose, the distribution of SI of the MRI is measured in different magnetic field intensity or different MRI sequence. When quantitative measuring the contrast agents via the SI, the value of K and B can be determined via linear fitting according to the experimental conditions,\nFIG. 3 is a fitting curve of the SI and the concentration of the contrast agents corresponding to the Experiment 1 shown in Table 1. It is the measurement result under the circumstances that the magnetic field intensity is 1.5T, the MRI sequence is FLASH 2D, the contrast agent is Gd-DTPA and the concentration range is 0 to 1.2 mM. According to the fitting curve, the value of K is 337.434 and the value of B is 184.344."}},
  "data": [
    {"smiles": "O=C([O-])CN(CCN(CC(=O)[O-])CC(=O)O)CCN(CC(=O)[O-])CC(=O)O.[Gd+3]", "note": "[Gd-DTPA]", "values": [
      {"measurement": "Time of peak of SI increment (ASI) after injection", "setting": "[1]; 1 mm away from injection site along X direction, 1 μL 5 to 25 mM into caudate nucleus", "result": "about 1 h"},
      {"measurement": "Course of SI increment (ASI, concentration increment) over time", "setting": "[1]; spots 2 mm and 3 mm away from injection site (cortex)", "result": "first slowly increases then slowly decreases"},
      {"measurement": "Value of K (slope of SI vs concentration)", "setting": "[2]; Experiment 1: 1.5T, FLASH 2D, concentration range 0-1.2 mM", "result": 337.434},
      {"measurement": "Value of K (slope of SI vs concentration)", "setting": "[2]; Experiment 2: 3T, FLASH 2D, concentration range 0-1.2 mM", "result": 247.834},
      {"measurement": "Value of K (slope of SI vs concentration)", "setting": "[2]; Experiment 3: 3T, 3D MP-RAGE, concentration range 0-0.5 mM", "result": 1913.686},
      {"measurement": "Value of K (slope of SI vs concentration)", "setting": "[2]; Experiment 4: 3T, 3D MP-RAGE, concentration range 0-1 mM", "result": 1174.5}
    ]}
  ]
}
